Measured values: patent US10899754B2, “Modulators of indoleamine 2,3-dioxygenase” (GLAXOSMITHKLINE INTELLECTUAL PROPERTY DEVELOPMENT LIMITED, priority 2016, dated 2021)

Tests used:
Assay type in all cases: cell-based
[1] = tested on: human epithelial HeLa cells; assay: HeLa cytotoxicity assay (CellTiter-Glo); settings: pCC50
Procedure, shortened: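 Read-out is CellTiter-Glo luminescence after 2 days at 37 °C, on IFN-γ-stimulated (10 nM) HeLa cells seeded at 5,000/well with compounds in 11-point 3-fold dose series. pCC50 from four-parameter curve fit; wells without cells set 100% cytotoxicity, stimulated cells with DMSO set 0%.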

[2] = target: T1, indoleamine 2, 3-dioxygenase (IDO1) (Homo sapiens, UniProt P14902); assay: IDO1 PBMC RapidFire MS assay (kynurenine detection by mass spectrometry); set-up: to induce the expression of indoleamine 2, 3-dioxygenase (IDO1); host or cells: human PBMC stimulated with IFN-gamma and LPS; settings: human PBMC stimulated with IFN-γ and LPS, 2 days, pIC50, read-out: PBMC PXC50 (converted)
T1 sequence (P14902 whole entry): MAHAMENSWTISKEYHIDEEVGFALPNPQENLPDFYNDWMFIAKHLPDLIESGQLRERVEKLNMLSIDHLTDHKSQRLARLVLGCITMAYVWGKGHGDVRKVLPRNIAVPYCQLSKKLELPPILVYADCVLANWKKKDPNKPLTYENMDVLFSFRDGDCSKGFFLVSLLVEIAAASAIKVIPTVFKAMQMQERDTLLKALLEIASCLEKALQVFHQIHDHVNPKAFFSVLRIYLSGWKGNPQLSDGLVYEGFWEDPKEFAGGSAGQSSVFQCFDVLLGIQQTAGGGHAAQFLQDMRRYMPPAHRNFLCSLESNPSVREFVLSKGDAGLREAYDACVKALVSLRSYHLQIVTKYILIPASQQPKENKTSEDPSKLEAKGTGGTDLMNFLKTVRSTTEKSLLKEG
Procedure, shortened: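 Kynurenine output, read by RapidFire mass spectrometry as ratio to an internal standard, was measured after 2-day compound exposure (11-point, 3-fold dilutions) of human PBMCs induced with 100 ng/ml IFN-γ and 50 ng/ml LPS. Cell viability tracked alongside via ATP luminescence; XC50 from curve fitting.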

[3] = tested on: human peripheral blood mononuclear cells (PBMC); assay: PBMC cytotoxicity assay (CellTiter-Glo); settings: 2 days, pCC50
Procedure, shortened: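 % cytotoxicity was taken from CellTiter-Glo luminescence, using wells without cells and stimulated DMSO wells as references, and fitted by four-parameter curve to give XC50. Cells were human PBMC at 50,000 per well, activated with 100 ng/ml IFN-γ plus 50 ng/ml LPS. Incubation with 11-point, 3-fold dilution series ran for 2 days at 37 °C.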

[4] = target: T1, indoleamine 2, 3-dioxygenase (IDO1); assay: IDO1 HeLa RapidFire MS assay (kynurenine detection by mass spectrometry); set-up: to induce the expression of indoleamine 2, 3-dioxygenase (IDO1); settings: HeLa cells, pIC50, read-out: IDO1_HELA_PXC50 (converted)
Procedure, shortened: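 Compound potency reported as pIC50 from kynurenine/internal-standard ratio (RapidFire MS) in supernatant of IFN-γ-induced (10 nM) HeLa cells, 5,000 per well, after 2 days' treatment with 11-point dilutions. Cytotoxicity in the same format by luminescent ATP detection, reported as pCC50.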

CC(C)CN(c1ccc(C(C)(C)CC(=O)O)cc1Nc1nc(C(F)(F)F)ns1)C1CCOCC1 [Example 1, 3-(4-(isobutyl(tetrahydro-2H-pyran-4-yl)amino)-3-((3-(trifluoromethyl)-1,2,4-thiadiazol-5-yl)amino)phenyl)-3-methylbutanoic Acid]
HELA_IDO1_TOX_PXC50 [1]: <5 | IC50 [2]: 0.794 nM | PBMC TOX PXC50 [3]: <5 | IC50 [4]: 3.98 nM

CC(C)CN(c1ccc([C@H](C)CC(=O)O)cc1Nc1ccc(Cl)nc1)[C@H]1CC[C@@H](O)CC1 [Example 58, (R)-3-(3-((6-chloropyridin-3-yl)amino)-4-(((1s,4S)-4-hydroxycyclohexyl) (isobutyl)amino)phenyl)butanoic Acid]
HELA_IDO1_TOX_PXC50 [1]: <5 | IC50 [2]: 7.94 nM | PBMC TOX PXC50 [3]: <5 | IC50 [4]: 10 nM

CC(C)CN(c1ccc([C@H](C)CC(=O)O)cc1Nc1cnc(C#N)nc1)C1CCOCC1 [Example 17, (R)-3-(3-((2-cyanopyrimidin-5-yl)amino)-4-(isobutyl(tetrahydro-2H-pyran-4-yl)amino)phenyl)butanoic Acid]
HELA_IDO1_TOX_PXC50 [1]: <5 | IC50 [2]: 2 nM | PBMC TOX PXC50 [3]: <5 | IC50 [4]: 6.31 nM

CC(C)CN(CC(C)C)c1ccc(C(C)CC(=O)O)cc1Nc1nc2ccccc2n1C (stereo not shown) [example 119, 3-{4-[bis(2-methylpropyl)amino]-3-[(1-methyl-1H-1,3-benzodiazol-2-yl)amino]phenyl}butanoic acid]
HELA_IDO1_TOX_PXC50 [1]: <4.3 | PBMC TOX PXC50 [3]: <4.3 | IC50 [4]: 1260 nM

CC(C)CN(c1ccc(C2CC2C(=O)O)cc1Nc1nc(C(F)(F)F)ns1)C1CCCCC1 (single isomer, unassigned) [Example 105, 2-(4-(cyclohexyl(isobutyl)amino)-3-((3-(trifluoromethyl)-1,2,4-thiadiazol-5-yl)amino)phenyl)cyclopropanecarboxylic Acid]
HELA_IDO1_TOX_PXC50 [1]: <5 | IC50 [2]: 3.16 nM | IC50 [4]: 6.31 nM

CC(C)CN(c1ccc([C@H](C)CC(=O)O)cc1NC1CCCC1)C1CCCCC1 [example 179, (3R)-3-{4-[cyclohexyl(2-methylpropyl)amino]-3-(cyclopentylamino)phenyl}butanoic acid]
HELA_IDO1_TOX_PXC50 [1]: <5 | IC50 [2]: 126 nM | IC50 [4]: 251 nM

CC(C)CN(CC(C)C)c1ccc(C(C)CC(=O)O)cc1Nc1nc(N2CCCC2)ns1.O=C(O)C(F)(F)F (stereo not shown) [example 118, 3-{4-[bis(2-methylpropyl)amino]-3-{[3-(pyrrolidin-1-yl)-1,2,4-thiadiazol-5-yl]amino}phenyl}butanoic acid]
HELA_IDO1_TOX_PXC50 [1]: <4.3 | PBMC TOX PXC50 [3]: <4.3 | IC50 [4]: 5010 nM

CC(C)CN(CC(C)C)c1ccc(C(C)CC(=O)O)cc1Nc1nc(N2CCOCC2)ns1.O=C(O)C(F)(F)F (stereo not shown) [example 117, 3-{4-[bis(2-methylpropyl)amino]-3-{[3-(morpholin-4-yl)-1,2,4-thiadiazol-5-yl]amino}phenyl}butanoic acid]
HELA_IDO1_TOX_PXC50 [1]: <4.3 | PBMC TOX PXC50 [3]: <4.3 | IC50 [4]: 3980 nM

CC(C)CN(CC(C)C)c1ccc(C(C)CC(=O)O)cc1Nc1nnc(NS(C)(=O)=O)s1 (stereo not shown) [example 192, 3-{4-[bis(2-methylpropyl)amino]-3-[(5-methanesulfonamido-1,3,4-thiadiazol-2-yl)amino]phenyl}butanoic acid]
HELA_IDO1_TOX_PXC50 [1]: <5 | IC50 [4]: 5010 nM

CC(C)CN(CC(C)C)c1ccc(C(C)CC(=O)O)cc1Nc1nncs1 (stereo not shown) [example 196, 3-{4-[bis(2-methylpropyl)amino]-3-[(1,3,4-thiadiazol-2-yl)amino]phenyl}butanoic acid]
HELA_IDO1_TOX_PXC50 [1]: <5 | IC50 [4]: 158 nM

CC(C)CN(CC(C)C)c1ccc(C(C)CC(=O)O)cc1Nc1ccc(C(N)=O)cn1 (stereo not shown) [example 204, 3-{4-[bis(2-methylpropyl)amino]-3-[(5-carbamoylpyridin-2-yl)amino]phenyl}butanoic acid]
HELA_IDO1_TOX_PXC50 [1]: <5 | IC50 [4]: 3160 nM

CC(C)CN(c1ccc(-c2ccccc2C(=O)O)cc1Nc1nc(C(F)(F)F)ns1)C1CCN(CCO)CC1 [example 271, 4′-{[1-(2-hydroxyethyl)piperidin-4-yl](2-methylpropyl)amino}-3′-{[3-(trifluoromethyl)-1,2,4-thiadiazol-5-yl]amino}-[1,1′-biphenyl]-2-carboxylic acid]
HELA_IDO1_TOX_PXC50 [1]: <5 | IC50 [4]: 6310 nM

CC(C)CN(c1ccc(C(C)CC(=O)O)cc1Nc1nc2n(n1)CCCC2)C1CCCCC1 (stereo not shown) [example 150, 3-{4-[cyclohexyl(2-methylpropyl)amino]-3-({5H,6H,7H,8H-[1,2,4]triazolo[1,5-a]pyridin-2-yl}amino)phenyl}butanoic acid]
HELA_IDO1_TOX_PXC50 [1]: <5 | IC50 [4]: 3160 nM

COCc1nnc(Nc2cc(C(C)CC(=O)O)ccc2N(CC(C)C)CC(C)C)s1 (stereo not shown) [example 188, 3-{4-[bis(2-methylpropyl)amino]-3-{[5-(methoxymethyl)-1,3,4-thiadiazol-2-yl]amino}phenyl}butanoic acid]
HELA_IDO1_TOX_PXC50 [1]: <5 | IC50 [4]: 126 nM

Cc1nc(Cc2ccccc2)c(Nc2cc(C(C)CC(=O)O)ccc2N(CC(C)C)CC(C)C)s1 (stereo not shown) [example 146, 3-{3-[(4-benzyl-2-methyl-1,3-thiazol-5-yl)amino]-4-[bis(2-methylpropyl)amino]phenyl}butanoic acid]
HELA_IDO1_TOX_PXC50 [1]: <5 | IC50 [4]: > 10000 nM

CC(C)CN(CC(C)C)c1ccc(C(C)CC(=O)O)cc1Nc1nc(C(C)(C)C)cs1 (stereo not shown) [example 133, 3-{4-[bis(2-methylpropyl)amino]-3-[(4-tert-butyl-1,3-thiazol-2-yl)amino]phenyl}butanoic acid]
HELA_IDO1_TOX_PXC50 [1]: 4.5 | IC50 [4]: 3980 nM

CC(C)CN(CC(C)C)c1ccc(C(C)CC(=O)O)cc1NCc1noc(C2CC2)n1 (stereo not shown) [example 147, 3-{4-[bis(2-methylpropyl)amino]-3-{[(5-cyclopropyl-1,2,4-oxadiazol-3-yl)methyl]amino}phenyl} butanoic acid]
HELA_IDO1_TOX_PXC50 [1]: <5 | IC50 [4]: > 10000 nM

CC(C)CN(c1ccc(C(C)CC(=O)O)cc1NC1CCN(C)CC1)C1CCCCC1 (stereo not shown) [example 140, 3-{4-[cyclohexyl(2-methylpropyl)amino]-3-[(1-methylpiperidin-4-yl)amino]phenyl}butanoic acid]
HELA_IDO1_TOX_PXC50 [1]: <5 | IC50 [4]: 3160 nM

Cc1nnc(Nc2cc(C(C)CC(=O)O)ccc2N(CC(C)C)CC(C)C)o1.O=C(O)C(F)(F)F (stereo not shown) [example 125, 3-{4-[bis(2-methylpropyl)amino]-3-[(5-methyl-1,3,4-oxadiazol-2-yl)amino]phenyl}butanoic acid]
HELA_IDO1_TOX_PXC50 [1]: <4.3 | IC50 [4]: 1260 nM

CC(C)CN(CC(C)C)c1ccc(C(C)CC(=O)O)cc1Nc1nnc(CC(N)=O)s1 (stereo not shown) [example 195, 3-{4-[bis(2-methylpropyl)amino]-3-{[5-(carbamoylmethyl)-1,3,4-thiadiazol-2-yl]amino}phenyl}butanoic acid]
HELA_IDO1_TOX_PXC50 [1]: <5 | IC50 [4]: 3160 nM

CC(C)CN(c1ccc(-c2ccncc2C(=O)O)cc1Nc1nc2ccccc2o1)C1CCCCC1 [example 281, 4-{3-[(1,3-benzoxazol-2-yl)amino]-4-[cyclohexyl(2-methylpropyl)amino]phenyl}pyridine-3-carboxylic acid]
HELA_IDO1_TOX_PXC50 [1]: <5 | IC50 [4]: 100 nM

CC(C)CN(c1ccc(C(C)CC(=O)O)cc1NC1CCNC1)C1CCCCC1 (stereo not shown) [example 136, 3-{4-[cyclohexyl(2-methylpropyl)amino]-3-[(pyrrolidin-3-yl)amino]phenyl}butanoic acid]
HELA_IDO1_TOX_PXC50 [1]: 5.1 | IC50 [4]: 3160 nM

CC(C)CN(CC(C)C)c1ccc(C(C)CC(=O)O)cc1Nc1nc(C2CCOCC2)cs1 (stereo not shown) [example 138, 3-{4-[bis(2-methylpropyl)amino]-3-{[4-(oxan-4-yl)-1,3-thiazol-2-yl]amino}phenyl}butanoic acid]
HELA_IDO1_TOX_PXC50 [1]: <4.3 | IC50 [4]: 5010 nM

CC(C)CN(c1ccc([C@H](C)CC(=O)O)cc1NC1CCC(C)(C)CC1)C1CCCCC1 [example 182, (3R)-3-{4-[cyclohexyl(2-methylpropyl)amino]-3-[(4,4-dimethylcyclohexyl)ami-no]phenyl}butanoic acid]
HELA_IDO1_TOX_PXC50 [1]: <5 | IC50 [4]: 5010 nM

CC(C)CN(CC(C)C)c1ccc(C(C)CC(=O)O)cc1Nc1nc(N2CCN(C)CC2)ns1 (stereo not shown) [example 116, 3-{4-[bis(2-methylpropyl)amino]-3-{[3-(4-methylpiperazin-1-yl)-1,2,4-thiadiazol-5-yl]amino}phenyl}butanoic acid]
HELA_IDO1_TOX_PXC50 [1]: <4.3 | PBMC TOX PXC50 [3]: <4.3 | IC50 [4]: 39800 nM

COc1ccnc(Nc2cc(C(C)CC(=O)O)ccc2N(CC(C)C)CC(C)C)n1.O=C(O)C(F)(F)F (stereo not shown) [example 127, 3-{4-[bis(2-methylpropyl)amino]-3-[(4-methoxypyrimidin-2-yl)amino]phenyl}butanoic acid]
HELA_IDO1_TOX_PXC50 [1]: <4.3 | IC50 [4]: 2510 nM
